Series [1] relates to retinal function in C57BL/6 mice. Kind of series: Electroretinograms (ERGs) after intraocular injection.
Procedure: For scotopic recordings, mice were dark adapted overnight, and for photopic recordings, mice were adapted for 10 min to background white light at an intensity of 30 cd/m^2. The mice were anesthetized with an intraperitoneal injection of ketamine hydrochloride (100 mg/kg body weight) and xylazine (5 mg/kg body weight). Pupils were dilated with Midrin P containing of 0.5% tropicamide and 0.5% phenylephrine, hydrochloride (Santen Pharmaceutical Co., Osaka, Japan). The mice were placed on a pad heated to 39° C. and platinum loop electrodes were placed on each cornea after application of Gonioscopic prism solution (Alcon Labs, Fort Worth, Tex.). A reference electrode was placed subcutaneously in the anterior scalp between the eyes and a ground electrode was inserted into the tail. The head of the mouse was held in a standardized position in a ganzfeld bowl illuminator that ensured equal illumination of the eyes. Recordings for both eyes were made simultaneously with electrical impedance balanced. Scotopic ERGs were recorded at 11 intensity levels of white light ranging from −3.00 to 1.40 log cd-s/m2. Six measurements were averaged for each flash intensity. Photopic ERGs were recorded at three intensity levels of white light ranging from 0.60 to 1.40 log cd-s/m2 with a 30 cd/m2 background. Five measurements were averaged for each flash intensity.
Series [2] deals with photoreceptor cells (ONL) of C57BL/6 mice. Kind of series: Outer nuclear layer (ONL) thickness after intraocular injection. It is filed as in vivo. Particulars: 0.25 μg intraocular; one week. Here is the method: ONL thickness was measured. […] Mice were euthanized, a mark was placed at 12:00 at the corneal limbus, and eyes were removed and embedded in optimal cutting temperature compound. Ten micrometer frozen sections were cut parallel to the 12:00 or 9:00 meridian through the optic nerve and fixed in 4% paraformaldehyde. The sections were stained with hematoxylin and eosin, examined with an Axioskop microscope (Zeiss, Thornwood, N.Y.), and images were digitized using a three charge-coupled device (CCD) color video camera (IK-TU40A; Toshiba, Tokyo, Japan) and a frame grabber. Image-Pro Plus software (Media Cybernetics, Silver Spring, Md.) was used to outline the ONL.

The subject of series [3] is HIF-1 transcriptional activity and ocular NV. The note with it: intraocular injections of 0.01-0.25 μg; cited from earlier work.
Series [4] has as its system choroidal NV in C57BL/6 mice. Kind of series: Laser-induced choroidal NV (rupture of Bruch's membrane) mouse model. Format: in vivo. Particulars: 14 days, vs fellow eyes injected with vehicle. Here is the method: Pathogen-free C57BL/6 mice (Charles River, Wilmington, Mass.) were treated in accordance with the Association for Research in Vision and Ophthalmology Statement for the Use of Animals in Ophthalmic and Vision Research and the guidelines of the Johns Hopkins University Animal Care and Use Committee.
Choroidal NV was induced by laser photocoagulation-induced rupture of Bruch's membrane as previously described (Tobe, T. et al., Am. J. Pathol. 135(5): 1641-1646 (1998)). […] Laser photocoagulation (75 μm spot size, 0.1 sec duration, 120 mW) was performed in the 9, 12, and 3 o'clock positions of the posterior pole of each eye with the slit lamp delivery system of an OcuLight GL diode laser (Iridex, Mountain View, Calif.) and a handheld cover slip as a contact lens to view the retina. Production of a bubble at the time of laser, which indicates rupture of Bruch's membrane, is an important factor in obtaining CNV; therefore, only burns in which a bubble was produced were included in the study.
Immediately after laser-induced rupture of Bruch's membrane, mice were randomized to various treatment groups for intraocular injections. Intravitreal injections were done under a dissecting microscope with a Harvard Pump Microinjection System and pulled glass micropipettes.
At 1, 4, 7, and 14 days after injection, fundus photographs were taken with a Micron III® camera (Phoenix Research Laboratories Inc., Pleasanton, Calif.). After 14 days, the mice were perfused with 1 ml of PBS containing 25 mg/ml of fluorescein-labeled dextran (2×10^6 Daltons average molecular weight; Sigma-Aldrich, St. Louis, Mo.) and choroidal flat mounts were examined by fluorescence microscopy. Images were captured with a Nikon Digital Still Camera DXM1200 (Nikon Instruments Inc., New York, N.Y.). Image analysis software (Image-Pro® Plus; Media Cybernetics, Silver Spring, Md.) was used to measure the total area of CNV at each rupture site with the investigator masked with respect to treatment group.

For series [5], the system named is retinal NV in C57BL/6 mice with oxygen-induced ischemic retinopathy. Kind of series: Oxygen-induced ischemic retinopathy, area of retinal NV. It is filed as in vivo. The note with it: measured five days later (P17). How it is done: At P17, the area of retinal NV on the surface of the retina was measured. […] Retinas were dissected, washed, and incubated with goat-anti rat polyclonal antibody conjugated with Alexa 488 (Invitrogen, Carlsbad, Calif.) at 1:500 dilution at room temperature for 45 minutes and flat mounted. An observer masked with respect to treatment group measured the area of NV per retina by image analysis.

Where [6] appears, read: 1 μg intraocular, fourteen days.
The mark [7] stands for this setting: 0.1 μg intraocular injection after laser.
[8] abbreviates: 1.0 μg intraocular injection after laser.
[9] abbreviates: 10 μg intraocular injection after laser.

Entries after “also recorded” stand apart in the source; their conditions may differ.

For the molecule `C[C@H]1O[C@@H](O[C@H]2[C@@H](O)C[C@H](O[C@H]3[C@@H](O)C[C@H](O[C@H]4CC[C@@]5(C)[C@H](CC[C@@H]6[C@@H]5C[C@@H](O)[C@]5(C)[C@@H](C7=CC(=O)OC7)CC[C@]65O)C4)O[C@@H]3C)O[C@@H]2C)C[C@H](O)[C@@H]1O` [digoxin], the “mean scotopic and photopic b-wave amplitudes” value in series [1] (0.05 μg intraocular) is “significant reduction in mean scotopic and photopic b-wave amplitudes”. Also, in series [1] (0.25 μg intraocular, one week), the “ERG amplitudes (scotopic a-wave, scotopic b-wave, photopic b-wave)” value is “significant reduction in mean scotopic a-wave amplitude, mean scotopic b-wave amplitude, and mean photopic b-wave amplitude”. For the same molecule, in series [2], the “outer nuclear layer thickness” value is reported as “reduction in outer nuclear layer thickness at 3 of 6 measurement locations”. Besides, the “effect on HIF-1 transcriptional activity and ocular NV” value in series [3] was “suppress HIF-1 transcriptional activity and ocular NV”.
As for `COc1cccc2c1C(=O)c1c(O)c3c(c(O)c1C2=O)C[C@@](O)(C(=O)CO)C[C@@H]3O[C@H]1C[C@H](N)[C@H](O)[C@H](C)O1` [DXR, doxorubicin], the “mean scotopic and photopic b-wave amplitudes” value in series [1] (setting [6]) was “significant reduction in mean scotopic and photopic b-wave amplitudes”. Further, the results for the “area of CNV” value in series [4] (setting [7]), in series [4] (setting [8]) and in series [4] (setting [9]) were “did not have a significant effect; also recorded: did not show a statistically significant reduction in the area of CNV”, “did not have a significant effect; also recorded: did not show a statistically significant reduction in the area of CNV” and “suppressed choroidal NV; also recorded: statistically significant reduction in the area of CNV”, respectively. Besides, the “area of RNV” value in series [5] (0.01 μg intraocular at P12) was “but not 0.1 or 0.01 μg, significantly reduced; also recorded: did not show a statistically significant reduction in the area of RNV”; in series [5] (0.1 μg intraocular at P12), “but not 0.1 or 0.01 μg, significantly reduced; also recorded: did not show a statistically significant reduction in the area of RNV”; in series [5] (1.0 μg intraocular at P12), “significantly reduced the area of retinal NV; also recorded: statistically significant reduction in the area of RNV”.
As to `COc1cccc2c1C(=O)c1c(O)c3c(c(O)c1C2=O)C[C@@](O)(C(C)=O)C[C@@H]3O[C@H]1C[C@H](N)[C@H](O)[C@H](C)O1` [DNR, daunorubicin], the “mean scotopic and photopic b-wave amplitudes” value in series [1] (setting [6]) is “significant reduction in mean scotopic and photopic b-wave amplitudes”. Also, the figures for the “area of CNV” value in series [4] (setting [7]), in series [4] (setting [8]) and in series [4] (setting [9]) were “had no significant effect; also recorded: did not show a statistically significant reduction in the area of CNV”, “had no significant effect; also recorded: did not show a statistically significant reduction in the area of CNV” and “suppressed choroidal NV; also recorded: statistically significant reduction in the area of CNV”, respectively. The “area of RNV” value in series [5] (0.01 μg intraocular at P12) is “had no significant effect; also recorded: did not show a statistically significant reduction in the area of RNV”; in series [5] (0.1 μg intraocular at P12), “caused a small reduction; also recorded: statistically significant reduction in the area of RNV”; in series [5] (1.0 μg intraocular at P12), “markedly reduced the area of retinal NV; also recorded: statistically significant reduction in the area of RNV”.

The values are drawn from patent US9950072B2, “Controlled release formulations for the delivery of HIF-1 inhibitors” (The Johns Hopkins University, priority 2012, dated 2018).
